In brackets after ≈: the same amount, converted by molar mass.
What was measured:
Test in all cases: Bacterial Assay: Determination of Antibacterial Activity (MIC, broth microdilution or agar dilution)
Assay type in all cases: cell-based
[1] = system: Clostridium difficile (Isolate ID ATCC 9689); details: Clostridioides difficile, ATCC9689, 48 h, read-out: C. difficile MIC Activity Range
Outline: (§1)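 MICs were set by CLSI broth microdilution or agar dilution for anaerobes, read visually after 48 hours at 37° C. under anaerobic gas packs. Medium was reinforced clostridial medium with 0.1% defibrinated horse blood; values are binned as A ≦1.01, B >1.0-4.0, C >4.0-16 μg/mL.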

[2] = system: Clostridium difficile (Isolate ID 027-01); details: Clostridioides difficile, 48 h, read-out: MIC (μg/mL) C. difficile (027-01)
Outline: as §1

[3] = system: Clostridium difficile (Isolate ID BI-9); details: Clostridioides difficile, 48 h, read-out: MIC (μg/mL) C. difficile (B-I9)
Outline: as §1

For `Cn1cccc1CNC(=O)OCC(Oc1ccc(F)c(C(N)=O)c1F)c1nc(-c2ccc(C(F)(F)F)cc2)c(Br)o1` (stereo not drawn) [Compound 80, 2-{5-bromo-4-[4-(trifluoromethyl)phenyl]-1,3-oxazol-2-yl}-2-(3-carbamoyl-2,4-difluorophenoxy)ethyl [(1-methyl-1H-pyrrol-2-yl)methyl]carbamate], the MIC [1] was < 1.01 µg/mL, the MIC [2] was 0.5 µg/mL (≈ 0.777 µM) and the MIC [3] was 0.5 µg/mL (≈ 0.777 µM).
In the case of `Cc1sc(COc2ccc(F)c(C(N)=O)c2F)nc1-c1ccc(Cl)cc1` [Compound 189, 3-{[4-(4-chlorophenyl)-5-methyl-1,3-thiazol-2-yl]methoxy}-2,6-difluorobenzamide], the MIC [1] was < 1.01 µg/mL, the MIC [2] was 1 µg/mL (≈ 2.53 µM) and the MIC [3] was 1 µg/mL (≈ 2.53 µM).
Work on `CN(C)C(=O)OCC(Oc1ccc(F)c(C(N)=O)c1F)c1nc(-c2ccc(C(F)(F)F)cc2)c(Br)o1` (stereo not drawn) [Compound 49, 2-{5-bromo-4-[4-(trifluoromethyl)phenyl]-1,3-oxazol-2-yl}-2-(3-carbamoyl-2,4-difluorophenoxy)ethyl dimethylcarbamate] yielded an MIC [1] of 1 to 4 µg/mL (≈ 1.73 to 6.92 µM), an MIC [2] of 2 µg/mL (≈ 3.46 µM) and an MIC [3] of 2 µg/mL (≈ 3.46 µM).
`NC(=O)c1c(F)ccc(OCc2ccnc(-c3ccc(Cl)cc3)n2)c1F` [Compound 192, 3-{[2-(4-chlorophenyl)pyrimidin-4-yl]methoxy}-2,6-difluorobenzamide] was tested, and the MIC [1] was < 1.01 µg/mL, the MIC [2] was 1 µg/mL (≈ 2.66 µM) and the MIC [3] was 1 µg/mL (≈ 2.66 µM).
In the case of `NC(=O)c1c(F)ccc(OCc2nc(-c3ccc(Cl)cc3)ns2)c1F` [Compound 19, 3-{[3-(4-chlorophenyl)-1,2,4-thiadiazol-5-yl]methoxy}-2,6-difluorobenzamide], the MIC [1] was < 1.01 µg/mL, the MIC [2] was 1 µg/mL (≈ 2.62 µM) and the MIC [3] was 2 µg/mL (≈ 5.24 µM).
For `NC(=O)c1c(F)ccc(OCCc2nc(-c3ccc(OC(F)(F)F)cc3)cs2)c1F` [Compound 111, 2,6-difluoro-3-(2-{4-[4-(trifluoromethoxy)phenyl]-1,3-thiazol-2-yl}ethoxy)benzamide], the MIC [1] was < 1.01 µg/mL, the MIC [2] was 0.25 µg/mL (≈ 0.563 µM) and the MIC [3] was 0.25 µg/mL (≈ 0.563 µM).
`NC(=O)c1c(F)ccc(OCCCCCCOc2ccc(OC(F)(F)F)cc2)c1F` [Compound 134, 2,6-difluoro-3-({6-[4 (trifluoromethoxy)phenoxy]hexyl}oxy) benzamide] was tested, and the MIC [1] was < 1.01 µg/mL, the MIC [2] was 0.25 µg/mL (≈ 0.577 µM) and the MIC [3] was 0.25 µg/mL (≈ 0.577 µM).
`COc1ncccc1CNC(=O)OCC(Oc1ccc(F)c(C(N)=O)c1F)c1nc(-c2ccc(C(F)(F)F)cc2)c(Br)o1` (stereo not drawn) [Compound 74, 2-{5-bromo-4-[4-(trifluoromethyl)phenyl]-1,3-oxazol-2-yl}-2-(3-carbamoyl-2,4-difluorophenoxy)ethyl [(2-methoxypyridin-3-yl)methyl]carbamate] was tested, and the MIC [1] was < 1.01 µg/mL, the MIC [2] was 0.5 µg/mL (≈ 0.745 µM) and the MIC [3] was 0.5 µg/mL (≈ 0.745 µM).
`NC(=O)c1c(F)ccc(OCc2nc(-c3ccc(Cl)s3)cs2)c1F` [Compound 203, 3-{[4-(5-chlorothiophen-2-yl)-1,3-thiazol-2-yl]methoxy}-2,6-difluorobenzamide] was tested, and the MIC [1] was < 1.01 µg/mL, the MIC [2] was 0.5 µg/mL (≈ 1.29 µM) and the MIC [3] was 1 µg/mL (≈ 2.59 µM).
With `NC(=O)c1c(F)ccc(OCCCCCCOc2ccc(C(F)(F)F)cc2)c1F` [Compound 135, 2,6-difluoro-3-({6-[4-(trifluoromethyl)phenoxy]hexyl}oxy)benzamide] the MIC [1] was < 1.01 µg/mL, the MIC [2] was 0.5 µg/mL (≈ 1.2 µM) and the MIC [3] was 0.5 µg/mL (≈ 1.2 µM).
With `NC(=O)c1c(F)ccc(OCc2nc(-c3ccc(OC(F)(F)F)cc3)c(Br)s2)c1F` [Compound 105, 3-({5-bromo-4-[4-(trifluoromethoxy)phenyl]-1,3-thiazol-2-yl}methoxy)-2,6-difluorobenzamide] the MIC [1] was < 1.01 µg/mL, the MIC [2] was 0.5 µg/mL (≈ 0.982 µM) and the MIC [3] was 1 µg/mL (≈ 1.96 µM).
`NC(=O)c1c(F)ccc(OC(CO)c2nc(-c3ccc(Cl)cc3)c(Br)o2)c1F` (stereo not drawn) [Compound 33, 3-{1-[5-bromo-4-(4-chlorophenyl)-1,3-oxazol-2-yl]-2-hydroxyethoxy}-2,6-difluorobenzamide] was tested, and the MIC [1] was < 1.01 µg/mL, the MIC [2] was 0.12 µg/mL (≈ 0.253 µM) and the MIC [3] was 0.5 µg/mL (≈ 1.06 µM).
For `NC(=O)c1c(F)ccc(OCc2nc(-c3ccc(C(F)(F)F)cc3)cs2)c1F` [Compound 16, 2,6-difluoro-3-({4-[4-(trifluoromethyl)phenyl]-1,3-thiazol-2-yl}methoxy)benzamide], the MIC [1] was < 1.01 µg/mL, the MIC [2] was 0.5 µg/mL (≈ 1.21 µM) and the MIC [3] was 0.5 µg/mL (≈ 1.21 µM).
With `NC(=O)c1c(F)ccc(OCc2ccn(-c3ccc(OC(F)(F)F)cc3)n2)c1F` [Compound 108, 2,6-difluoro-3-({1-[4-(trifluoromethoxy)phenyl]-1H-pyrazol-3-yl}methoxy)benzamide] the MIC [1] was < 1.01 µg/mL, the MIC [2] was 0.5 µg/mL (≈ 1.21 µM) and the MIC [3] was 0.5 µg/mL (≈ 1.21 µM).
With `C#CCCCCCCCCCOc1ccc(F)c(C(N)=O)c1F` [Compound 7, 2,6-difluoro-3-(undec-10-yn-1-yloxy)benzamide] the MIC [1] was < 1.01 µg/mL, the MIC [2] was 0.12 µg/mL (≈ 0.371 µM) and the MIC [3] was 0.12 µg/mL (≈ 0.371 µM).
`NC(=O)c1c(F)ccc(OCc2nc(-c3ccc(Cl)cc3)cs2)c1F` [Compound 11, 3-{[4-(4-chlorophenyl)-1,3-thiazol-2-yl]methoxy}-2,6-difluorobenzamide] was tested, and the MIC [1] was < 1.01 µg/mL, the MIC [2] was 0.25 µg/mL (≈ 0.657 µM) and the MIC [3] was 0.25 µg/mL (≈ 0.657 µM).
`NC(=O)c1c(F)ccc(OCc2nc(-c3ccc(Cl)cc3)c(Br)s2)c1F` [Compound 12, 3-{[5-bromo-4-(4-chlorophenyl)-1,3-thiazol-2-yl]methoxy}-2,6-difluorobenzamide] was tested, and the MIC [1] was < 1.01 µg/mL, the MIC [2] was 1 µg/mL (≈ 2.18 µM) and the MIC [3] was 1 µg/mL (≈ 2.18 µM).
`CNC(=N)c1cccc(OCc2nc(-c3ccc(Cl)cc3)ns2)c1F` [Compound 205, 3-{[3-(4-chlorophenyl)-1,2,4-thiadiazol-5-yl]methoxy}-2-fluoro-N-methylbenzenecarboximidamide] was tested, and the MIC [1] was 4 to 16 µg/mL (≈ 10.6 to 42.5 µM), the MIC [2] was 16 µg/mL (≈ 42.5 µM) and the MIC [3] was 16 µg/mL (≈ 42.5 µM).
For `NC(=O)c1c(F)ccc(OCc2nc(-c3ccc(S(F)(F)(F)(F)F)cc3)cs2)c1F` [Compound 112, 2,6-difluoro-3-({4-[4-(pentafluoro-lambda~6~- sulfanyl)phenyl]-1,3-thiazol-2-yl}methoxy)benzamide], the MIC [1] was < 1.01 µg/mL, the MIC [2] was 0.12 µg/mL (≈ 0.254 µM) and the MIC [3] was 0.12 µg/mL (≈ 0.254 µM).
With `NC(=O)c1c(F)ccc(OCc2nc(C#Cc3cccc(Cl)c3)cs2)c1F` [Compound 198, 3-({4-[(3-chlorophenyl)ethynyl]-1,3-thiazol-2-yl}methoxy)-2,6-difluorobenzamide] the MIC [1] was < 1.01 µg/mL, the MIC [2] was 0.12 µg/mL (≈ 0.296 µM) and the MIC [3] was 0.25 µg/mL (≈ 0.618 µM).
In the case of `NC(=O)c1c(F)ccc(OCCCCOc2ccc(S(F)(F)(F)(F)F)cc2)c1F` [Compound 159], the MIC [1] was < 1.01 µg/mL, the MIC [2] was 0.12 µg/mL (≈ 0.268 µM) and the MIC [3] was 0.12 µg/mL (≈ 0.268 µM).
With `NC(=O)c1c(F)ccc(OCc2nc(-c3ccc(OC(F)(F)F)cc3)cs2)c1F` [Compound 17, 2,6-difluoro-3-({4-[4-(trifluoromethoxy)phenyl]-1,3-thiazol-2-yl}methoxy)benzamide] the MIC [1] was < 1.01 µg/mL, the MIC [2] was 0.185 µg/mL (≈ 0.43 µM) and the MIC [3] was 0.25 µg/mL (≈ 0.581 µM).
With `NC(=O)c1c(F)ccc(O[C@H](CO)c2nc(-c3ccc(C(F)(F)F)cc3)c(Br)o2)c1F` (single isomer, unassigned) [Compound 47] the MIC [1] was < 1.01 µg/mL, the MIC [2] was 0.12 µg/mL (≈ 0.237 µM) and the MIC [3] was 0.12 µg/mL (≈ 0.237 µM).
With `CC(=O)OCC(Oc1cccc(C(N)=O)c1F)c1nc(-c2ccc(C(F)(F)F)cc2)c(Br)o1` (stereo not drawn) [Compound 57, 2-{5-bromo-4-[4-(trifluoromethyl)phenyl]-1,3-oxazol-2-yl}-2-(3-carbamoyl-2-fluorophenoxy)ethyl acetate] the MIC [1] was < 1.01 µg/mL, the MIC [2] was 0.5 µg/mL and the MIC [3] was 0.5 µg/mL.
`NC(=O)c1c(F)ccc(OCCCCOc2ccc(OC(F)(F)F)cc2)c1F` [Compound 128, 2,6-difluoro-3-{4-[4-(trifluoromethoxy)phenoxy]butoxy}benzamide] was tested, and the MIC [1] was < 1.01 µg/mL, the MIC [2] was 0.06 µg/mL (≈ 0.148 µM) and the MIC [3] was 0.12 µg/mL (≈ 0.296 µM).
`NC(=O)c1c(F)ccc(OCCCCCOc2ccc(OC(F)(F)F)cc2)c1F` [Compound 131, 2,6-difluoro-3-({5-[4-(trifluoromethoxy)phenoxy]pentyl}oxy) benzamide] was tested, and the MIC [1] was < 1.01 µg/mL, the MIC [2] was 0.25 µg/mL (≈ 0.596 µM) and the MIC [3] was 0.25 µg/mL (≈ 0.596 µM).
For `NC(=O)c1c(F)ccc(OCc2nc(-c3ccc(OC(F)(F)F)cc3)ns2)c1F` [Compound 20, 2,6-difluoro-3-({3[4-(trifluoromethoxy)phenyl]-1,2,4-thiadiazol-5-yl}methoxy)benzamide], the MIC [1] was < 1.01 µg/mL, the MIC [2] was 0.06 µg/mL (≈ 0.139 µM) and the MIC [3] was 0.06 µg/mL (≈ 0.139 µM).
With `CN(CCCCOc1ccc(OC(F)(F)F)cc1)c1ccc(F)c(C(N)=O)c1F` [Compound 152, 2,6-difluoro-3-(methyl{4-[4-(trifluoromethoxy)phenoxy]butyl}amino) benzamide] the MIC [1] was < 1.01 µg/mL, the MIC [2] was 0.5 µg/mL (≈ 1.2 µM) and the MIC [3] was 0.5 µg/mL (≈ 1.2 µM).
In the case of `NC(=O)c1c(F)ccc(OCCCCOc2ccc(C(F)(F)F)cc2)c1F` [Compound 129, 2,6-difluoro-3-{4-[4 (trifluoromethyl)phenoxy]butoxy}benzamide], the MIC [1] was < 1.01 µg/mL, the MIC [2] was 0.06 µg/mL (≈ 0.154 µM) and the MIC [3] was 0.06 µg/mL (≈ 0.154 µM).
With `NC(=O)c1c(F)ccc(OCc2nc(-c3ccc(OC(F)(F)F)cc3)c(Br)o2)c1F` [Compound 209, 3-({5-bromo-4-[4-(trifluoromethoxy)phenyl]-1,3-oxazol-2-yl}methoxy)-2,6-difluorobenzamide] the MIC [1] was < 1.01 µg/mL, the MIC [2] was 0.12 µg/mL (≈ 0.243 µM) and the MIC [3] was 0.25 µg/mL (≈ 0.507 µM).

— patent publication US20170305943A1, “COMPOUNDS FOR THE TREATMENT OF BACTERIAL INFECTIONS” (priority 2014, published 2017)
